Measured values published in patent publication US8420777B2, “Compounds that inhibit Hsp90 protein-protein interactions with IAP proteins” (University of Massachusetts, priority 2004, dated 2013).

Legend:
HeLa cells = assay: Multiparametric flow cytometry of caspase activity and membrane integrity; assay type: cell-based, Human; conditions: increasing concentrations, 24 hours
Protocol: (§1) For multiparametric analysis of caspase-dependent cell death and loss of plasma membrane integrity, HeLa, MCF-7, or genetically engineered HCT116 cells (obtained from ATCC) were loaded with increasing concentrations of cell permeable control scrambled peptide or the Survivin peptide, harvested after culturing for 24 hours at 37° C., and analyzed for cell viability (propidium iodide, red channel) and active caspase-3 activity (CaspaTag™ from Intergen, Purchase, N.Y., green channel) by flow cytometry.
Cells were harvested after 24 hours of incubation with peptide and simultaneously analyzed for caspase activity by DEVDase activity (X-axis, green fluorescence) and cell membrane integrity by propidium iodide staining (Y-axis, red fluorescence). Cells in the upper right quadrant correspond to the population with elevated caspase activity and loss of cell membrane integrity (apoptotic).

[1] = test system: HCT116 colorectal cancer cells (p53+/+ or p53-/-); assay: as above; assay type: cell-based; set-up: dose or concentration left out as unconfirmed; conditions: 24 hours, p53+/+ versus p53-/-
Protocol: as §1
In these experiments, HCT116 colorectal cancer cells carrying wild type p53 (p53^+/+) or homozygously inactivated p53 (p53^−/−) (Bunz et al., Science, 282:1497-1501 (1998))) were incubated with […] of cell permeable Control (SEQ ID NO:25) or Survivin (SEQ ID NO:19) cell permeable peptide, harvested after 24 hours and analyzed by multiparametric flow cytometry of induction of caspase activity and loss of cell membrane integrity.

[2] = test system: HFF, HGF, WS-1 normal cells; assay: MTT colorimetric viability assay, normal cell types; assay type: cell-based, human; conditions: 24 hours
Protocol: FIGS. 22A and 22B compares the effect of P31 (SEQ ID NO:19) or P33 (SEQ ID NO:25) on apoptosis of tumor cell lines (FIG. 22A) and normal cell lines (FIG. 22B). The following tumor cell lines DU145 (prostate cancer, circles), PC3 (prostate cancer, triangles), or HeLa (cervical carcinoma, squares) were treated with the indicated increasing concentrations of P31 peptide (solid symbols) or control P33 peptide (open symbols), harvested after 24 hours, and analyzed for cell viability using an MTT colorimetric assay. For normal cell types (right panel), HFF (human foreskin fibroblasts, squares), HGF (human fibroblasts, triangles) or WS-1 (human epithelial cells, circles) were treated with P31 (solid symbols) or control scrambled peptide P33, harvested after 24 hours and analyzed for overall cell viability by MTT colorimetric assay. All cell lines were from ATCC.

N-terminus of Hsp90 = target: T1, N-terminus of Hsp90 (Homo sapiens, UniProt P07900, S63T); assay: ELISA of immobilized peptide with Hsp90 fragments; assay type: binding; conditions: compared to P33 peptide
T1 construct: GST (N); made in house; host or cells: E. coli
Protocol: ELISA experiments were performed by immobilizing recombinant Survivin (r-Survivin) ([…]) or recombinant Hsp90 (r-Hsp90) (10 μg/ml) on plastic microtiter wells (Immulon™-2, Dynatech Laboratories, Chantilly, Va.) using bicarbonate buffer, pH 9.5 (100 μl/well) for 18 hours at 4° C. Bound protein was blocked with 3% gelatin for 1 hour at 37° C., rinsed with washing buffer (TBS pH 7.4, 0.1% Tween™, 0.1% BSA) and incubated for 1 hour at 37° C. with different concentrations of a test protein to determine if the test protein bound the immobilized protein.
Nucleotide sequences encoding full length Hsp90α (SEQ ID NO:21; amino acids 1-732) or three fragments: N-Hsp90 (amino acids 1-272 of SEQ ID NO:21), M-Hsp90, (amino acids 273-617 of SEQ ID NO:21), and C-Hsp90 (amino acids 629-732 of SEQ ID NO:21) were cloned by PCR in pGex-4T3 (Pharmacia Biotech.) and pFLAG-CMV 6c (Sigma) using the BamHI cloning sites. GST fusions of full length Hsp90, or individual Hsp90 fragments were expressed in E. coli and bound to glutathione beads (Sigma). Purified recombinant Survivin devoid of the GST frame was obtained as described in Example 2.
FIGS. 24A and 24B identify the location of P31 peptide's binding site as the N-terminus domain of Hsp90. […] After washing, binding of the individual Hsp90 fragments to the immobilized peptides was detected with an antibody to Hsp90. […]

PC3 cells = assay: Immunoblotting of Hsp90 client proteins; assay type: cell-based; conditions: 75 and 150 μM, 8 hours
Protocol: Survivin affects the stability and function of Hsp90 client proteins in tumor cells. PC3 cells were untreated or exposed to 75 and 150 μM concentrations of the survivin peptide (SEQ ID NO:19) (or control scrambled peptide; SEQ ID NO:25) for 8 hours and processed for immunoblotting against the Hsp90 client proteins survivin, AKT, and CDK-6. […] Conversely, the levels of Hsp90, Hsp70, and PCNA were not affected (FIG. 26A).

[3] = test system: U937, K562, HL60, THP1 AML cell lines; assay: MTT cell viability in AML cell lines; assay type: cell-based, human
Protocol: FIG. 30 is a graph depicting killing activity of survivin K79-G83 in AML cells. The indicated human AML cell lines (U937, K562, HL60, and THP1) were incubated with scrambled (SEQ ID NO:28) or Survivin (SEQ ID NO:20) peptides and evaluated for cell viability by MTT.
The effect of the K79-G83 Survivin peptide was characterized in more detail for anti-tumor activity in AML. The K79-L87 (SEQ ID NO:19) and K79-G83 peptides (SEQ ID NO:20) were incubated with AML cells, and cell viability was measured using MTT.

recombinant Hsp90 = target: T2, recombinant Hsp90 (Homo sapiens, UniProt P07900, S63T); assay: ELISA binding to recombinant Hsp90
T2 construct: GST-Hsp90 (amino acids 1-732); GST (N); made in house; host or cells: E. coli
From the text: FIG. 31 is a graph depicting Hsp90 binding by Survivin peptides, measured by ELISA. Data are the mean±S.D. of two independent experiments.

RQIKIWFQNRRMKWKKKHSSGCAFL (Synthetically generated peptide) [P31]
cell death (caspase activity and loss of plasma membrane integrity) (HeLa cells): induces cell death more efficiently than scrambled control peptide
accumulation of cells with high caspase activity and loss of plasma membrane integrity [1]: indistinguishable between p53^+/+ and p53^−/− HCT116 cells
cell death in normal cell types (MTT) [2]: did not induce cell death in any of the three normal cell types
binding to the N-terminus of Hsp90 (OD405) (N-terminus of Hsp90): bound specifically
Hsp90 client proteins (survivin, Akt, CDK-4, CDK-6) (PC3 cells): caused disappearance of multiple Hsp90 client proteins
levels of Hsp90, Hsp70, and PCNA (PC3 cells): not affected
cell viability (MTT), killing of AML cell lines [3]: efficiently killed all AML cell lines tested
binding to recombinant Hsp90 in vitro (recombinant Hsp90): comparably bound recombinant Hsp90
